The supplement of paper PMC13380429

Experiments:
[1] = tested on: A549-ACE2; assay: drug-induced phospholipidosis relative to tamoxifen; higher = more phospholipidosis
[2] = tested on: A549-ACE2 infected with SARS-CoV-2; assay: morphology score (similarity to uninfected cells); higher = more like uninfected cells; details: 24 h
[3] = tested on: U2OS; assay: cell viability relative to DMSO; higher = less toxic; details: 72 h
[4] = tested on: Caco-2; assay: as above; details: 72 h
[5] = tested on: HepG2; assay: as above; details: 72 h
[6] = tested on: Calu-3; assay: as above; details: 72 h
[7] = tested on: Vero E6; assay: as above; details: 72 h
[8] = tested on: A549-ACE2 infected with SARS-CoV-2; assay: cell count relative to DMSO; higher = less toxic; details: 24 h
[9] = tested on: U2OS; assay: drug sensitivity score (DSS) for viability; higher = more toxic; extreme values may be limits of the assay; details: 72 h
[10] = tested on: Caco-2; assay: as above; details: 72 h
[11] = tested on: HepG2; assay: as above; details: 72 h
[12] = tested on: Calu-3; assay: as above; details: 72 h
[13] = tested on: Vero E6; assay: as above; details: 72 h
[14] = tested on: A549-ACE2 infected with SARS-CoV-2; assay: SARS-CoV-2 infection rate relative to DMSO; higher = more infection; details: 24 h
[15] = tested on: U2OS; assay: relative viability EC50 (midpoint between 100% and the lowest measured viability); higher = less toxic; details: 72 h
[16] = tested on: Caco-2; assay: as above; details: 72 h
[17] = tested on: HepG2; assay: as above; details: 72 h
[18] = tested on: A549-ACE2; assay: phospholipidosis EC50; higher = less potent phospholipidosis inducer
[19] = tested on: Calu-3; assay: relative viability EC50 (midpoint between 100% and the lowest measured viability); higher = less toxic; details: 72 h
[20] = tested on: Vero E6; assay: as above; details: 72 h

CC(=O)[O-].CC(=O)[O-].N.NC1CCCCC1.[Cl-].[Cl-].[Pt+4] [satraplatin]
drug-induced phospholipidosis [%], [1]
Details	0.3 µM	0.833333 µM	3.33333 µM	6.66667 µM	10 µM
24 h	3.84	0.69	3.32	0.26	5.28
48 h	3.35	-1.19	-0.57	-1.29	-2.3
72 h	2.49	-2.74	0.684	–	–

Details	SARS-CoV-2 infection rate, [14] [%]	cell count, [8] [%]	cell viability, [3] [%]	cell viability, [4] [%]	cell viability, [5] [%]	cell viability, [6] [%]	cell viability, [7] [%]	morphology score, [2]
1 nM	–	–	104	95.7	105	113	106	–
10 nM	–	–	109	99.7	96.5	119	103	–
0.1 µM	107	107	–	–	–	–	–	0.11
100 nM	–	–	103	93.5	102	96.6	93.4	–
0.3 µM	108	94	–	–	–	–	–	-0.19
1 µM	90	98	–	–	–	–	–	0.26
1000 nM	–	–	105	93.3	73.8	94.8	91.7	–
3 µM	97	93	–	–	–	–	–	0.04
10000 nM	–	–	8.5	42	36.1	69	68.1	–

Details	drug sensitivity score	relative viability EC50 [nM]
[9]	4.7	–
[10]	4.3	–
[11]	7	–
[12]	2.2	–
[13]	2.4	–
[15]	–	3440
[16]	–	2210
[17]	–	1160

CCN(CC)CCO[C@H]1CC[C@@]2(C)C(=CC[C@@H]3[C@@H]2CC[C@]2(C)C(=O)CC[C@@H]32)C1
drug-induced phospholipidosis [%], [1]
Details	0.3 µM	0.833333 µM	3.33333 µM	6.66667 µM	10 µM	30 µM
24 h	6.72	34.6	112	114	104	86.8
48 h	7.14	19.8	111	116	106	90
72 h	6.02	13.4	95.4	125	115	–

Details	SARS-CoV-2 infection rate [%]	cell count [%]	cell viability [%]	morphology score	phospholipidosis EC50 [nM]
[2], 0.1 µM	–	–	–	-0.31	–
[2], 0.3 µM	–	–	–	0.19	–
[2], 1 µM	–	–	–	0.41	–
[2], 3 µM	–	–	–	0.69	–
[3], 1 nM	–	–	99.4	–	–
[3], 10 nM	–	–	98.4	–	–
[3], 100 nM	–	–	99.7	–	–
[3], 1000 nM	–	–	84.9	–	–
[3], 10000 nM	–	–	78.6	–	–
[4], 1 nM	–	–	92	–	–
[4], 10 nM	–	–	92.6	–	–
[4], 100 nM	–	–	97.2	–	–
[4], 1000 nM	–	–	88.4	–	–
[4], 10000 nM	–	–	51.2	–	–
[5], 1 nM	–	–	101	–	–
[5], 10 nM	–	–	93.8	–	–
[5], 100 nM	–	–	85.3	–	–
[5], 1000 nM	–	–	84.5	–	–
[5], 10000 nM	–	–	33.5	–	–
[6], 1 nM	–	–	98	–	–
[6], 10 nM	–	–	103	–	–
[6], 100 nM	–	–	107	–	–
[6], 1000 nM	–	–	79.4	–	–
[6], 10000 nM	–	–	18.5	–	–
[7], 1 nM	–	–	93.9	–	–
[7], 10 nM	–	–	104	–	–
[7], 100 nM	–	–	89.3	–	–
[7], 1000 nM	–	–	92.3	–	–
[7], 10000 nM	–	–	24.6	–	–
[8], 0.1 µM	–	96	–	–	–
[8], 0.3 µM	–	105	–	–	–
[8], 1 µM	–	114	–	–	–
[8], 3 µM	–	117	–	–	–
[14], 0.1 µM	108	–	–	–	–
[14], 0.3 µM	93	–	–	–	–
[14], 1 µM	81	–	–	–	–
[14], 3 µM	29	–	–	–	–
[18], 24 h	–	–	–	–	935
[18], 48 h	–	–	–	–	1040
[18], 72 h	–	–	–	–	2250

Details	drug sensitivity score	relative viability EC50 [nM]
[9]	2.2	–
[10]	4.4	–
[11]	5.8	–
[12]	7.7	–
[13]	5.4	–
[15]	–	> 10000
[17]	–	1720
[19]	–	1540
[20]	–	2320

CC(C)(C)c1ccc(C(=O)CCCN2CCC(OC(c3ccccc3)c3ccccc3)CC2)cc1 [ebastine]
drug-induced phospholipidosis [%], [1]
Details	0.3 µM	0.833333 µM	3.33333 µM	6.66667 µM	10 µM	30 µM
24 h	8.24	11.3	46.9	67.3	73.2	55.4
48 h	5.48	4.12	27.6	52.1	76.4	–
72 h	5.22	0.608	24.1	42.2	62.6	–

Details	SARS-CoV-2 infection rate [%]	cell count [%]	cell viability [%]	morphology score	phospholipidosis EC50 [nM]
[2], 0.3 µM	–	–	–	-0.12	–
[2], 3 µM	–	–	–	0.71	–
[2], 10 µM	–	–	–	0.8	–
[2], 30 µM	–	–	–	0.25	–
[3], 1 nM	–	–	99	–	–
[3], 10 nM	–	–	94.6	–	–
[3], 100 nM	–	–	102	–	–
[3], 1000 nM	–	–	93.6	–	–
[3], 10000 nM	–	–	87.9	–	–
[4], 1 nM	–	–	97.6	–	–
[4], 10 nM	–	–	102	–	–
[4], 100 nM	–	–	104	–	–
[4], 1000 nM	–	–	98.8	–	–
[4], 10000 nM	–	–	68.2	–	–
[5], 1 nM	–	–	89.3	–	–
[5], 10 nM	–	–	110	–	–
[5], 100 nM	–	–	101	–	–
[5], 1000 nM	–	–	108	–	–
[5], 10000 nM	–	–	60.5	–	–
[6], 1 nM	–	–	96.4	–	–
[6], 10 nM	–	–	95.7	–	–
[6], 100 nM	–	–	106	–	–
[6], 1000 nM	–	–	101	–	–
[6], 10000 nM	–	–	60.2	–	–
[7], 1 nM	–	–	88.3	–	–
[7], 10 nM	–	–	98.7	–	–
[7], 100 nM	–	–	92.1	–	–
[7], 1000 nM	–	–	92	–	–
[7], 10000 nM	–	–	86.8	–	–
[8], 0.3 µM	–	99	–	–	–
[8], 3 µM	–	117	–	–	–
[8], 10 µM	–	111	–	–	–
[8], 30 µM	–	58	–	–	–
[14], 0.3 µM	105	–	–	–	–
[14], 3 µM	44	–	–	–	–
[14], 10 µM	26	–	–	–	–
[14], 30 µM	26	–	–	–	–
[18], 24 h	–	–	–	–	3130
[18], 48 h	–	–	–	–	22100
[18], 72 h	–	–	–	–	17300

Details	drug sensitivity score	relative viability EC50 [nM]
[9]	0.3	–
[10]	1.6	–
[11]	1.5	–
[12]	1.9	–
[13]	0	–
[15]	–	> 10000
[20]	–	> 10000

OC1=c2ccccc2=C(NC2CCCCC2)/C1=C\c1ccccc1
drug-induced phospholipidosis [%], [1]
Details	0.3 µM	0.833333 µM	3.33333 µM	30 µM
24 h	2.77	-0.77	1.63	12.9
48 h	0.98	-0.44	6.41	–
72 h	1.89	-2.33	6.19	–

Details	SARS-CoV-2 infection rate, [14] [%]	cell count, [8] [%]	cell viability, [3] [%]	cell viability, [4] [%]	cell viability, [5] [%]	cell viability, [6] [%]	cell viability, [7] [%]	morphology score, [2]
1 nM	–	–	98.9	107	95.6	89.1	93.6	–
10 nM	–	–	99.4	92	104	82.2	95.2	–
0.1 µM	96	99	–	–	–	–	–	-0.03
100 nM	–	–	108	96	101	90.1	96.9	–
0.3 µM	99	101	–	–	–	–	–	0.22
1 µM	103	99	–	–	–	–	–	-0.06
1000 nM	–	–	83	88.3	93	99.5	91.7	–
3 µM	93	73	–	–	–	–	–	0.11
10000 nM	–	–	0.1	32.8	1.2	35.8	10.5	–

Details	drug sensitivity score	relative viability EC50 [nM]
[9]	8.3	–
[10]	5.6	–
[11]	6.5	–
[12]	3.6	–
[13]	6.3	–
[15]	–	1880
[16]	–	1860
[17]	–	2590
[19]	–	3100
[20]	–	2400
